Assay results published in patent publication US20150297761A1, “PEPTIDIC STRUCTURES INCORPORATING AN AMINO ACID METAL COMPLEX AND APPLICATIONS IN MAGNETIC RESONANCE IMAGING” (THE GENERAL HOSPITAL CORPORATION, priority 2012, published 2015).
Where two headings read alike, the source gives them in different places.

Experiments:
[1] = literature (refs 37, 38), cited from earlier work
[2] = Relaxivity of Gd(DOTAla) metallopeptides and reference agents (T1 inversion recovery, 37° C.); format: physicochemical; conditions: for Relaxivity per Gd, 400 MHz: 400 MHz (9.4 T)
Description: Main numbers are given per Gd, numbers in parentheses are per molecule values. All numbers were determined at 37° C. using an inversion recovery sequence at concentrations ranging from 0.05 to 0.6 mM/Gd. Table 4 in Example 2 further expands the data of Table 1.
Per Gd relaxivities were determined by measuring T1 at 37° C. using 20, 60, 200, 400 and 500 MHz spectrometers. Relaxivities for MS-325 (with and without the presence of HSA) as a reference compound with a long τR and [Gd(HP-DO3A)(H2O)] as a reference for very short τR were also measured, and all the relaxivity data is tabulated in Table 4, together with results obtained from literature for the compounds with similar estimated τR. […] Additional rigidity through cyclization seems to provide only minor relaxivity increase for the dimeric and trimeric systems (Gd2C2 and Gd3C3).
Measurement of relaxivity. Longitudinal relaxation times T1, were measured on Bruker Minispecs mq20 (0.47 T) and mq60 (1.41 T), a Bruker Bioscan horizontal bore 4.7 T, 9.4 T and 11.7 T Varian NMR spectrometers. T1 was measured by using an inversion recovery method with 10 inversion time values ranging from 0.05×T1 to 5×T1. Relaxivity was calculated from a linear plot of 3 or 4 different concentrations (ranging from 0.01 to 0.5 mM, depending on amount of compound isolated) versus the corresponding inverse relaxation times. All samples were measured at 37° C. using either the internal temperature control of the instrument (0.47, 1.41, 9.4 and 11.7 T) or a warm air blower (4.7 T). MS-325/HSA was prepared in a 4.5% w/v solution of HSA (0.66 mM) in PBS. The MS-325 concentration (in presence of HSA) ranged from 0.05 to 0.15 mM.

[3] = buffer, pH 3
Description: For comparison, we also measured transchelation from the approved contrast agents [Gd(HP-DO3A)(H2O)] (ProHance, gadoteridol) and [Gd(DTPA)(H2O)]^2− (Magnevist, gadopentetate). […] We estimated half-times for these transchelations (time to 50% of the equilibrium value).
Stock solutions of MS-325-L and GdL1, Gd2L2 and Gd3L3 were prepared in 50 mM citrate buffer at pH 3.0. MS-325-L was added to solutions of the Gd complexes and incubated at 37° C. The final concentrations of the metal complexes were 0.1 mM, while the concentration of MS-325-L was adjusted according to the amounts of Gd complexes per metallopeptide present. A 10 μL aliquot was removed for HPLC analysis and analyzed while the remainder of the solution was incubated at 37° C.

[4] = cited from earlier work; for r1 1.41 T 310K: cell says 1.5 T, literature (ref 17)
[5] = hydration state; literature (superscript refs); cited from earlier work
[6] = Ligand challenge, equilibrium constant Kcomp of [Gd(DTPA)(H2O)]2− vs. L; format: physicochemical; conditions: for Kcomp [Gd(DTPA)(H2O)]^2- vs. L pH 4 / Kcomp, [Gd(DTPA)(H2O)]^2- vs. L pH 7.4: calculated from literature thermodynamic data
Description: As a means of assessing thermodynamic stability relative to other Gd(III)-complexes, [Gd(CyPic3A)(H2O)2]^− was challenged with DTPA in pH 7.4 25 mM Tris buffer. […] From this information it was possible to deduce equilibrium constants (Kcomp) for the competition reaction described in Equation 5,^31 where L=DTPA and L′=challenging chelator.
(§1) Equilibration of each solution was monitored by LC-MS. Relative distributions of [Gd(CyPic3A)(H2O)2]^− and CyPic3A were determined by integrating the corresponding absorbance traces at 280 nm. […] Kcomp values determined between [Gd(DTPA)(H2O)]^2− and various ligands were determined from conditional formation constants (Kcond)^4 values taken from the literature.^6-16 Direct comparisons were only made between Kcond values determined under identical conditions.

[7] = Ligand challenge, equilibrium constant Kcomp of MS-325 vs. L; format: physicochemical
Description: as §1

[8] = Zn(II) challenge of the Gd(III) complex of L; literature (ref 11); cited from earlier work
[9] = Kinetic inertness: Zn(II) transmetallation in phosphate buffer, followed by 1/T1; format: physicochemical; conditions: for Time to 80% r1: Zn(II) challenge of the Gd(III) complex of L, this work; for time to 80% of the initial 1/T1: 1 equiv. Zn(II), pH 7.0 phosphate buffer, 310 K
Text: Kinetic inertness was also taken into account in the evaluation of potential probes. In this regard, [Gd(CyPic3A)(H2O)2]^− was challenged with 1 equiv. [ZnPO4]^− as a slurry in pH 7.0 phosphate buffer at 310 K (see below). Several clinically utilized Gd(III) complexes have been benchmarked relative to one another in this manner.^37 As Gd(III) replaced by Zn(II) precipitates from the solution as GdPO4, the relaxation rate 1/T1 decreases. In this method, the time required to reach 80% of the initial 1/T1 value was utilized as an index of kinetic inertness.
Modified conditions of Muller and co-workers were used for this experiment.^11,12 Solutions containing 2.5 mM [Gd(CyPic3A)(H2O)2]^− and 2.5 mM Zn(OTf)2 were combined in pH 7.0 phosphate buffer (50 mM) and placed in an incubator shaker set to 310 K. Progress of the transchelation was monitored via the decrease in 1/T1 with time. Prior to measurement, aliquots were placed in small glass inserts and centrifuged to bring all insoluble material to the bottom so as not to interfere with the measurement.

[10] = Ligand challenge, equilibrium constant Kcomp of [Gd(DTPA)(H2O)]2− vs. L; format: physicochemical; conditions: obtained through ligand challenge
[11] = cited from earlier work
[12] = Relaxometry of [Gd(CyPic3A)(H2O)2]− in different media; format: physicochemical
Description: The relaxivity of [Gd(CyPic3A)(H2O)2]^− is consistent with two inner-sphere water ligands. At 310 K in pH 7.4 50 mM HEPES buffer, r1=5.70 mM^−1 s^−1 at 1.41 T (7.53 mM^−1s^−1 at 298 K). This is 75% higher than [Gd(DTPA)(H2O)]^2− measured under these conditions (see below for detailed table of r1 values). To probe the effects of potentially coordinating anions, nwas measured in the presence of 20 equiv. carbonate or L-lactate and also in 25 mM phosphate buffer (pH 7.4).
Relaxivity measurements were performed on a Bruker mq60 or Bruker mq20 Minispec at 1.41 T and 0.47 T, respectively, and 37° C. Longitudinal (T1) relaxation was acquired via an inversion recovery experiment on 10 inversions of duration ranging between 0.05×T1 and 5×T1. Relaxivity (r1) was determined from the slope of a plot of 1/T1 vs. [Gd] for at least 4 concentrations of Gd(III). The transverse (T2) relaxation times of ^17O were acquired at 500 MHz using a CPMG pulse sequence at temperatures ranging from 278 to 368 K. Reduced relaxation rates (1/T2r) were calculated by dividing the [Gd(CyPic3A)(H2O)2]^− imparted increase in 1/T2 relative to neat H2O at pH 3 by the mole fraction of coordinated water molecules.

[13] = 0.47 T, literature (superscript refs)
[14] = calculated from literature thermodynamic data
[15] = obtained through ligand challenge

Molecule: Gd(DO3A-N-α-aminopropionate) [F]
- ΔH^‡ ([1]; activation enthalpy of water exchange): 4.57 kcal/mol
- ^310kex × 10^6 (s^−1) ([1]; water exchange rate at 310 K): 42 × 10^6 s^−1
- ^310 TM (ns) ([1]; water residency time at 310 K (37° C.)): 24 ns

Molecule: CC(O)CN1CCN(CC(=O)[O-])CCN(CC(=O)[O-])CCN(CC(=O)[O-])CC1.[Gd+3] (stereo not shown) [[Gd(HP-DO3A)(H2O)], gadoteridol, reference compound]
- Relaxivity per Gd, 20 MHz ([2]; 20 MHz): 4.3 mM⁻¹ s⁻¹
- Relaxivity per Gd, 60 MHz ([2]; 60 MHz): 3.2 mM⁻¹ s⁻¹
- Relaxivity per Gd, 200 MHz ([2]; 200 MHz): 3.6 mM⁻¹ s⁻¹
- Relaxivity per Gd, 400 MHz [2]: 3.0 mM⁻¹ s⁻¹
- Relaxivity per Gd, 500 MHz ([2]; 500 MHz): 2.9 mM⁻¹ s⁻¹
- r1 [0.47 T], per Gd ([2]; per Gd, 0.47 T): 4.33 mM⁻¹ s⁻¹
- r1 [1.4 T], per Gd ([2]; per Gd, 1.4 T): 3.21 mM⁻¹ s⁻¹
- r1 [9.4 T], per Gd ([2]; per Gd, 9.4 T): 3.03 mM⁻¹ s⁻¹
- r1 [11.7 T], per Gd ([2]; per Gd, 11.7 T): 2.94 mM⁻¹ s⁻¹
- t1/2 [h], Gd transchelation to MS-325 [3]: 91 ± 6 h
- r1 0.47 T 310K [4, 13]: 3.1^17 mM^−1s^−1
- r1 1.41 T 310K [4]: 2.9 (1.5 T)^17 mM^−1s^−1
- q [5]: 1^16

Molecule: O=C(O)CN(CCN(CC(=O)O)C[C@H](COP(=O)(O)OC1CCC(c2ccccc2)(c2ccccc2)CC1)N(CC(=O)O)CC(=O)O)CC(=O)O
- Kcomp [Gd(DTPA)(H2O)]^2- vs. L pH 4 [6]: 0.57^5
- Kcomp, [Gd(DTPA)(H2O)]^2- vs. L pH 7.4 ([6]; pH 7.4): 2.88^5
- Kcomp MS-325 vs. L pH 4 [7, 14]: 1
- Kcomp MS-325 vs. L pH 7.4 [7, 14]: 1
- Time to 80% r1 (min) [8]: 3800^11 min

Molecule: N-((6-methylpicol-2-yl)methyl)-N,N′,N′-triacetate-trans-1,2-diaminocyclohexane [CyPic3A]
- affinity for Gd(III) lower than DTPA ([6]; pH 7.4): about 5 fold
- Time to 80% r1 [9]: 95 min
- Kcomp MS-325 vs. L pH 4 [7, 15]: 0.031
- Kcomp MS-325 vs. L pH 7.4 [7, 15]: 0.56
- Kcomp [Gd(DTPA)(H2O)]^2- vs. L pH 4 [10]: 0.18

Molecule: O=C([O-])CN(CCN(CC(=O)[O-])C[C@H](COP(=O)([O-])OC1CCC(c2ccccc2)(c2ccccc2)CC1)N(CC(=O)[O-])CC(=O)[O-])CC(=O)[O-].[Gd+3].[H+].[H+].[H+] [MS-325, gadofosveset]
- Relaxivity per Gd, 200 MHz ([2]; 200 MHz): 5.7 mM⁻¹ s⁻¹
- Relaxivity per Gd, 200 MHz, with HSA ([2]; 200 MHz, presence of 4.5% HSA): 5.0 mM⁻¹ s⁻¹
- Relaxivity per Gd, 400 MHz [2]: 4.8 mM⁻¹ s⁻¹
- Relaxivity per Gd, 400 MHz, with HSA ([2]; 400 MHz, presence of 4.5% HSA): 4.1 mM⁻¹ s⁻¹
- Relaxivity per Gd, 500 MHz ([2]; 500 MHz): 4.7 mM⁻¹ s⁻¹
- Relaxivity per Gd, 500 MHz, with HSA ([2]; 500 MHz, presence of 4.5% HSA): 3.7 mM⁻¹ s⁻¹
- Relaxivity per Gd, 20 MHz ([11]; 20 MHz, 37° C., literature data (footnotes a, b, d)): 6.8^d mM^−1 s^−1
- Relaxivity per Gd, 20 MHz, with HSA ([11]; 20 MHz, 37° C., presence of 4.5% HSA, from ref 22): 42^d mM^−1 s^−1
- Relaxivity per Gd, 60 MHz ([11]; 60 MHz, 37° C., literature data (footnotes a, b, d)): 5.4^d mM^−1 s^−1
- Relaxivity per Gd, 60 MHz, with HSA ([11]; 60 MHz, 37° C., presence of 4.5% HSA, from ref 22): 23.8^d mM^−1 s^−1
- peak molecular relaxivity ([11]; HSA-associated): above 40 mM^−1s^−1
- increase in relaxivity once associated with human serum albumin (HSA) ([11]; at low fields): over 8 fold
- r1 0.47 T 310K [4, 13]: 5.8^17 mM^−1s^−1
- r1 1.41 T 310K [4]: 5.2 (1.5 T)^17 mM^−1s^−1
- q [5]: 1^18

Molecule: O=C([O-])CN(CCN(CC(=O)[O-])CC(=O)O)CCN(CC(=O)[O-])CC(=O)O.[Gd+3] [[Gd(DTPA)(H2O)]^2−, gadopentetate]
- r1 1.41 T 310K [12]: 3.26 mM⁻¹ s⁻¹
- r1 ([12]; 1.41 T, 310 K, pH 7.4 50 mM HEPES buffer): 3.26 mM⁻¹ s⁻¹
- time to 80% of the initial 1/T1 [9]: 383 min
- t1/2 [h], Gd transchelation to MS-325 [3]: 0.42 ± 0.18 h
- r1 0.47 T 298K ([4]; 0.47 T, 298 K, literature (superscript refs)): 4.3^16 mM^−1s^−1
- r1 0.47 T 310K [4, 13]: 3.4^17 mM^−1s^−1
- q [5]: 1^16

Molecule: CNC(=O)CN(CCN(CCN(CC(=O)[O-])CC(=O)NC)CC(=O)[O-])CC(=O)[O-].[Gd+3] [[Gd(DTPA-BMA)(H2O)]]
- time to 80% of the initial 1/T1 [9]: 124 min
- r1 0.47 T 310K [4, 13]: 3.5^17 mM^−1s^−1
- r1 1.41 T 310K [4]: 3.3 (1.5 T)^17 mM^−1s^−1
- q [5]: 1^16

Molecule: CC(O)CN1CCN(CC(=O)O)CCN(CC(=O)O)CCN(CC(=O)O)CC1 (stereo not shown) [HP-DO3A]
- Kcomp [Gd(DTPA)(H2O)]^2- vs. L pH 4 [6]: 0.22^6
- Kcomp, [Gd(DTPA)(H2O)]^2- vs. L pH 7.4 ([6]; pH 7.4): 0.19^6
- Kcomp MS-325 vs. L pH 4 [7, 14]: 0.16^5,6
- Kcomp MS-325 vs. L pH 7.4 [7, 14]: 0.07^5,6
- Time to 80% r1 (min) [8]: inert^11

Molecule: O=C(O)CN(CCN(CC(=O)O)CC(=O)O)CCN(CC(=O)O)CC(=O)O [DTPA]
- Kcomp [Gd(DTPA)(H2O)]^2- vs. L pH 4 [6]: 1
- Kcomp, [Gd(DTPA)(H2O)]^2- vs. L pH 7.4 ([6]; pH 7.4): 1
- Time to 80% r1 [9]: 383 min
- Kcomp MS-325 vs. L pH 4 [7, 14]: 0.58^5
- Kcomp MS-325 vs. L pH 7.4 [7, 14]: 0.35^5

Molecule: O=C(O)CN1CCNCCN(CC(=O)O)CCN(CC(=O)O)CC1 [DO3A]
- Kcomp [Gd(DTPA)(H2O)]^2- vs. L pH 4 [6]: 0.00048^5,6
- Kcomp, [Gd(DTPA)(H2O)]^2- vs. L pH 7.4 ([6]; pH 7.4): 0.0005^5,6
- Kcomp MS-325 vs. L pH 4 [7, 14]: 0.00046^5,6
- Kcomp MS-325 vs. L pH 7.4 [7, 14]: 0.00017^5,6
- Time to 80% r1 (min) [8]: inert^11
